In patent US12090252B2, “Method for producing retinal tissues” (RIKEN, priority 2017, dated 2024):

Assays:
Assay type in all cases: cell-based
[1] = tested on: cell aggregates containing a retinal tissue produced from human ES cells; assay: CRX-positive and TRβ2-positive cells in retinal tissue, about day 70 of suspension culture (immunostaining, Image J); conditions: for CRX-positive and TRβ2-positive cells (cone photoreceptor precursor) / CRX-positive cells (photoreceptor precursor) contained in retinal tissue: about day 70 (day 71-75) from start of suspension culture, T3 60 nM from day 38, BMP4 0.15 nM or Cyclopamine-KAAD 500 nM from day 22
Description: (§1) A cell aggregate containing a retinal tissue in an initial developmental stage was prepared by the method described in “Kuwahara et al. Nat Commun 2015, 19(6), 6286-” after modification in part. That is, the aforementioned cultured ES cells were individually dispersed using TRYPLE™ Express cell dispersion solution (Invitrogen), and the individually dispersed human ES cells were suspended in 100 μL of a serum-free medium in a cell non-adhesive 96 well culture plate (SUMILON spheroid plate, SUMITOMO BAKELITE CO., LTD.) at 9×10^3 cells per well to allow rapid formation of aggregates, after which they were cultured at 37° C., 5% CO2. As the serum-free medium therefor, a serum-free medium obtained by adding 10% KSR, 450 μM 1-monothioglycerol, 1× Chemically defined lipid concentrate, 5 mg/mL BSA, 20 μM Y27632 to a 1:1 mixture of F-12 medium and IMDM medium was used. At 6 days after the start of suspension culture, BMP4 at a final concentration of 1.5 nM was added and suspension culture was continued. A half amount of the culture medium in the well was exchanged with the above-mentioned medium not supplemented with a BMP signal transduction pathway agonist every 3 or 4 days. A cell aggregate containing a retinal tissue at day 18 from the start of suspension culture was cultured in suspension in a serum-free medium (DMEM/F12 medium supplemented with 1% N2 supplement) containing 3 μM CHIR99021 and 5 μM SU5402 for 4 days, namely, up to day 22 from the start of suspension culture. Thereafter, suspension culture of the cell aggregate containing the retinal tissue was continued until it was appropriately used for analysis and the like. As the culture medium during this period, serum-containing media shown in the following to [3] were used and the cell aggregate was cultured under 5% CO2 conditions. • [1] day 22 to day 38 from the start of suspension culture; DMEM/F12 medium supplemented with 10% fetal calf serum, 1% N2 supplement, and 100 μM taurine (hereinafter to be referred to as medium A). • [2] day 38 to day 60 from the start of suspension culture; a 1:3 mixed medium of medium A, and Neurobasal medium supplemented with 10% fetal calf serum, 2% B27 supplement, […], and 100 μM taurine (hereinafter to be referred to as medium B). • [3] after day 60 or later from the start of suspension culture: medium B.
The cell aggregates containing a retinal tissue shown in Example 4 were prepared by respectively adding T3 or dorsalization signal transmitter (BMP4) as follows in the method described in Example 1. • [1]-T3 group (FIG. 4a, FIG. 4e, FIG. 4i); using the culture medium described in Example 1, culture was performed without addition up to day 75 from the start of suspension culture. • [2] +T3 group (FIG. 4b, FIG. 4f, FIG. 4j); using the culture medium described in Example 1, 60 nM T3 was further added from day 38 from the start of suspension culture to the completion of suspension culture, and cultured up to day 71 from the start of suspension culture. • [3] +T3+BMP group (FIG. 4c, FIG. 4g, FIG. 4k); using the culture medium described in Example 1, 0.15 nM BMP4 and 60 nM T3 were further added respectively from day 22, day 38 from the start of suspension culture to the completion of suspension culture, and cultured up to day 71 from the start of suspension culture. • [4] +T3+Cyclopamine-KAAD group (FIG. 4d, FIG. 4h, FIG. 4l); using the culture medium described in Example 1, 500 nM Cyclopamine-KAAD and 60 nM T3 were further added respectively from day 22, day 38 from the start of suspension culture to the completion of suspension culture, and cultured up to day 71 from the start of suspension culture.
After fixing cell aggregates containing retinal tissue cultured under the above conditions with 4% para-formaldehyde, cryosections were prepared and subjected to immunostaining using CRX, TRβ2(TRb2) antibody, or DAPI staining for staining the cell nucleus.

[2] = tested on: cell aggregates containing a retinal tissue produced from human ES cells; assay: PAX6/CHX10 cell proportions in retinal tissue, about day 190 of suspension culture (immunostaining, Image J); conditions: for PAX6-negative/CHX10-strongly positive cells (bipolar cells) / PAX6-strongly positive/CHX10-negative cells (any of ganglion cell, amacrine cell, horizontal cell): about day 190 (day 188-191), T3 60 nM day 38-130, BMP4 0.15 nM or Cyclopamine-KAAD 500 nM day 22-100; for PAX6-strongly positive/CHX10-negative cell and PAX6-negative/CHX10-strongly positive cell, observation with fluorescent microscope: day 188-191, groups added with T3 compared to groups with no addition
Description: as §1
The cell aggregates containing a retinal tissue shown in Example 5 were prepared by respectively adding T3 or dorsalization signal transmitter as follows in the method described in Example 1. • [1]-T3 group (FIG. 5a, FIG. 5g, FIG. 5m); using the culture medium described in Example 1, culture was performed without addition up to day 191 from the start of suspension culture. • [2] +T3 group (FIG. 5b, FIG. 5h, FIG. 5n); using the culture medium described in Example 1, 60 nM T3 was further added from day 38 to day 130 from the start of suspension culture, and thereafter cultured up to day 188 from the start of suspension culture. From day 130 to day 188, medium B described in Example 1 was used. • [3] +BMP group (FIG. 5c, FIG. 5i, FIG. 5o); using the culture medium described in Example 1, 0.15 nM BMP4 was further added from day 22 to day 100 from the start of suspension culture, and thereafter cultured up to day 191 from the start of suspension culture. From day 100 to day 191, medium described in Example 1 was used. • [4] +T3+BMP group (FIG. 5d, FIG. 5j, FIG. 5p); using the culture medium described in Example 1, 0.15 nM BMP4 was further added from day 22 to day 100 from the start of suspension culture, 60 nM T3 was added from day 38 to day 130 from the start of suspension culture, and thereafter cultured up to day 188 from the start of suspension culture.

[3] = tested on: cell aggregates containing a retinal tissue produced from human ES cells; assay: CRX:Venus, RXR-γ and NRL cell proportions in retinal tissue, about day 190 of suspension culture (immunostaining, Image J); conditions: for CRX-positive cells (CRX:Venus-positive, photoreceptor precursor) / NRL-positive cells among CRX-positive cells (rod photoreceptor precursor) / RXR-γ-positive and NRL-negative cell among CRX-positive cells (cone photoreceptor precursor): about day 190 (day 188-193), T3 60 nM day 38-130, BMP4 0.15 nM or Cyclopamine-KAAD 500 nM day 22-100
Description: as §1
The cell aggregates containing a retinal tissue shown in Example 6 were prepared by respectively adding T3 or dorsalization signal transmitter (BMP4 or Cyclopamine-KAAD) as follows in the method described in Example 1. • [1]-T3 group (FIG. 6a, FIG. 6e, FIG. 6i, FIG. 6m); using the culture medium described in Example 1, culture was performed without addition up to day 191 from the start of suspension culture. • [2] +T3 group (FIG. 6b, FIG. 6f, FIG. 6j, FIG. 6n); using the culture medium described in Example 1, 60 nM T3 was further added from day 38 to day 130 from the start of suspension culture, and thereafter cultured up to day 192 from the start of suspension culture. From day 130 to day 192, medium described in Example 1 was used. • [3] +T3+BMP group (FIG. 6c, FIG. 6g, FIG. 6k, FIG. 6o); using the culture medium described in Example 1, 0.15 nM BMP4 was further added from day 22 to day 100 from the start of suspension culture, 60 nM T3 was added from day 38 to day 130 from the start of suspension culture, and thereafter cultured up to day 188 from the start of suspension culture. From day 130 to day 188, medium described in Example 1 was used. • [4] +T3+Cyclopamine-KAAD group (FIG. 6d, FIG. 6h, FIG. 6l, FIG. 6p); using the culture medium described in Example 1, 500 nM Cyclopamine-KAAD was further added from day 22 to day 100 from the start of suspension culture, 60 nM T3 was added from day 38 to day 130 from the start of suspension culture, and thereafter cultured up to day 193 from the start of suspension culture. From day 130 to day 193, medium described in Example 1 was used.

[4] = tested on: cell aggregates containing a retinal tissue produced from human ES cells; assay: CRX:Venus green fluorescence of cell aggregates under a fluorescent microscope, day 69-74; conditions: T3 vs −T3 group
Description: A cell aggregate containing a retinal tissue in an initial developmental stage was prepared by the method described in “Kuwahara et al. Nat Commun 2015, 19(6), 6286-” after modification in part. That is, the aforementioned cultured ES cells were individually dispersed using TRYPLE™ Express cell dispersion solution (Invitrogen), and the individually dispersed human ES cells were suspended in 100 μL of a serum-free medium in a cell non-adhesive 96 well culture plate (SUMILON spheroid plate, SUMITOMO BAKELITE CO., LTD.) at 9×10^3 cells per well to allow rapid formation of aggregates, after which they were cultured at 37° C., 5% CO2. As the serum-free medium therefor, a serum-free medium obtained by adding 10% KSR, 450 μM 1-monothioglycerol, 1× Chemically defined lipid concentrate, 5 mg/mL BSA, 20 μM Y27632 to a 1:1 mixture of F-12 medium and IMDM medium was used. At 6 days after the start of suspension culture, BMP4 at a final concentration of 1.5 nM was added and suspension culture was continued. A half amount of the culture medium in the well was exchanged with the above-mentioned medium not supplemented with a BMP signal transduction pathway agonist every 3 or 4 days. […]

[5] = tested on: cell aggregates containing a retinal tissue produced from human ES cells; assay: CRX-positive cells in neural retinal tissue, day 100-105 of suspension culture (immunostaining, Image J)
Description: A cell aggregate containing a retinal tissue in an initial developmental stage was prepared by the method described in “Kuwahara et al. Nat Commun 2015, 19(6), 6286-” after modification in part. That is, the aforementioned cultured ES cells were individually dispersed using TRYPLE™ Express cell dispersion solution (Invitrogen), and the individually dispersed human ES cells were suspended in 100 μL of a serum-free medium in a cell non-adhesive 96 well culture plate (SUMILON spheroid plate, SUMITOMO BAKELITE CO., LTD.) at 9×10^3 cells per well to allow rapid formation of aggregates, after which they were cultured at 37° C., 5% CO2. As the serum-free medium therefor, a serum-free medium obtained by adding 10% KSR, 450 μM 1-monothioglycerol, 1× Chemically defined lipid concentrate, 5 mg/mL BSA, 20 μM Y27632 to a 1:1 mixture of F-12 medium and IMDM medium was used. At 6 days after the start of suspension culture, BMP4 at a final concentration of 1.5 nM was added and suspension culture was continued. A half amount of the culture medium in the well was exchanged with the above-mentioned medium not supplemented with a BMP signal transduction pathway agonist every 3 or 4 days. A cell aggregate containing a retinal tissue at day 18 from the start of suspension culture was cultured in suspension in a serum-free medium (DMEM/F12 medium supplemented with 1% N2 supplement) containing 3 μM CHIR99021 and 5 μM SU5402 for 4 days, namely, up to day 22 from the start of suspension culture. Thereafter, suspension culture of the cell aggregate containing the retinal tissue was continued until it was appropriately used for analysis and the like. […]

[6] = day 71-75, T3 vs −T3 group, combinations vs +T3 group
[7] = day 188-193, compared to −T3 group

| Compound | CRX-positive and TRβ2-positive cells (cone photoreceptor precursor) [1] | CRX-positive cells (photoreceptor precursor) contained in retinal tissue [1] | PAX6-negative/CHX10-strongly positive cells (bipolar cells) [2] | PAX6-strongly positive/CHX10-negative cells (any of ganglion cell, amacrine cell, horizontal cell) [2] | PAX6-strongly positive/CHX10-negative cell and PAX6-negative/CHX10-strongly positive cell, observation with fluorescent microscope [2] | CRX-positive cells (CRX:Venus-positive, photoreceptor precursor) [3] | NRL-positive cells among CRX-positive cells (rod photoreceptor precursor) [3] | RXR-γ-positive and NRL-negative cell among CRX-positive cells (cone photoreceptor precursor) [3] | green fluorescence shown by knocked-in CRX:Venus ([4]; day 69-74, T3 60 nM from day 38, BMP4 0.15 nM or Cyclopamine-KAAD 500 nM from day 22, combinations vs +T3 group) | green fluorescence shown by knocked-in CRX:Venus, in the presence of 9-cis retinoic acid ([4]; day 74, 100 nM 9-cis retinoic acid and 60 nM T3 from day 38, BMP4 0.45 nM from day 22, combination vs +T3 group) | CRX-positive cell (photoreceptor precursor), observation with fluorescence microscope [1, 6] | cone photoreceptor precursors (CRX-positive cell that expresses TRβ2), observation [1, 6] | ectopic CRX-positive cell in region on the basement membrane side from neuroblastic layer ([1]; day 71-75, observation with fluorescence microscope) | proportion of CRX-positive cells contained in the neural retinal tissue ([5]; T3 60 nM from day 38, BMP4 0.15 nM or Cyclopamine-KAAD 500 nM day 22-100) | CRX-positive cell (photoreceptor precursor), observation ([5]; compared to −T3 group) | ectopic photoreceptor precursors in neuroblastic layer and ganglion cell layer ([5]; observation) | RXR-γ-positive and NRL-negative cone photoreceptor precursor among CRX:Venus-positive photoreceptor precursors, observation [3, 7] | proportion of photoreceptor precursor among the cells contained in the retinal tissue, observation [3, 7] |
| --- | --- | --- | --- | --- | --- | --- | --- | --- | --- | --- | --- | --- | --- | --- | --- | --- | --- | --- |
| CC1=C2C[C@H]3[C@@H](CC=C4CC(=O)CC[C@@]43C)[C@@H]2CC[C@]12O[C@@H]1C[C@H](C)CN(CCNC(=O)CCCCCNC(=O)CCc3ccccc3)[C@H]1[C@H]2C [Cyclopamine-KAAD] | 8.1% | 14.1% | 8.65% | 24.50% | many | 41.7% | 11.5% | 30.2% |  |  |  |  |  |  |  |  |  |  |
| N[C@@H](Cc1cc(I)c(Oc2ccc(O)c(I)c2)c(I)c1)C(=O)O [T3, triiodothyronine] | 11.3% | 22.8% | 4.29% | 13.83% | markedly decreased | 53.4% | 9.4% | 44.1% | observed more | observed more | found more | found in a greater number | found at the same level as in the apical surface | 30.0% | remarkably increased | ectopic photoreceptor precursors are contained | increased | markedly high |
| BMP4: BMP protein, BMP signal transduction pathway agonist used as dorsalization signal transmitter | 10.8% | 17.0% | 15.49% | 24.60% | many | 37.7% | 6.1% | 31.3% |  |  |  |  |  |  |  |  |  |  |
